Values joined by “and” are separate entries in the source; they are usually repeats but may differ in a detail not shown here. Equal entries are not always repeated. Non-standard residues stand in square brackets, D forms with d. Residues, ends and D or L forms follow the SMILES beside them. dPra = C#CC[C@@H](N)C(=O)O; dDap = NC[C@@H](N)C(=O)O
What was measured:
proteasome [1] = conditions: background statement; cited from earlier work
20S CP [2] = test system: T1, 20S CP; assay: TAS-1 biochemical assay (20S CP stimulation); parameters: key to Emax: % of DMSO control rate (percent stimulation); key to TAS-1: % of DMSO control rate of TAS-1 hydrolysis; conditions: for 20S CP stimulatory activity (in words, SAR compared to CyPPS1): TAS-1 assay; for EC50: dose-response curve; for EC50 / Emax: 20S CP stimulation; for Emax: maximal response of dose-response curve, in %; for TAS-1: percent stimulation of 20S CP, rate of TAS-1 hydrolysis normalized against DMSO, compounds tested at 10 μM, 5 nM 20S CP
T1 construct: purchased South Bay
Procedure: Each compound was initially tested at 10 μM. Each well contained […] of 11.4 μM TAS-1 solution in Tris HCl (50 mM, pH 7.4) along with 5 nM of 20 sCP (South Bay). 1 μL of the test compound, control, or DMSO was added to the desired well to obtain a final DMSO concentration of 2%, with the total volume being 50 μL. Compounds were tested in three replicates that each had technical triplicates. The fluorescence was recorded using a SynergyNeo 2, where the excitation and emission was set to 335 nm and 493 nm. The plate reader was heated to 37° C. The fluorescence was recorded every 90 seconds over a 1-hour period. A simple linear regression was performed on the data plotted against time to obtain the rate of hydrolysis of TAS-1 by the 20S CP. The data was then normalized against DMSO to get the percent stimulation.

[3] = test system: T2, cytosolic proteasome in HEK293 T cells; assay: Flow cytometry assay of proteasome stimulation in cellulo (epoxomicin probe); format: cell-based; conditions: for In-Cellulo: 10 μM stimulator, 2.5 μM epoxomicin probe, 1 hour, flow cytometry (FITC); for cellular stimulation of the proteasome (in words): 10 μM, flow cytometry
T2 construct: endogenous in cells; host or cells: HEK 293T
Excerpt: Flow cytometry allows for the study of proteasomal activity in physiologically relevant conditions and presents a high-throughput alternative to traditional gel electrophoresis and western blotting techniques. To test the assay, the covalent fluorescent-based probe was applied in HEK293 T cells to quantify proteasome stimulation of CyPPSs alone and in the presence of the known proteasome stimulator miconazole and the known proteasome inhibitor MG132. The covalent fluorescent-based probe utilized an epoxy-ketone warhead that interacts with the β5 subunit of the proteasome, forming a covalent attachment and fluorescently tagging the proteasome. The addition of the CyPPSs induces a significant shift in the intracellular fluorescence (FIG. 6). This shift validated that CyPPSs can stimulate cytosolic proteasome in cellulo. […] However, their activity was lower than what would be expected based on their in vitro activity. This may be due to incomplete cellular uptake or escape from the endosomes. […] This is likely due to a combination of effects, including the inability to stimulate the proteasome (FIGS. 2A and 2B) as well as the generally poor cell permeability and stability of linear peptides.
Confluent HEK 293T cells were seeded into sterilized 2 mL Fisherbrand Eppendorf tubes in FBS free Dulbecco's Modified Eagle Medium (DMEM) at a concentration of 300,000 cells per tube. The cells were centrifuged at 1000 g for 5 minutes. The supernatant was removed, and the cells were resuspended in 500 μL of a 10 μM stimulator solution in FBS free DMEM. Cells were spun down at 1000 g for 5 minutes, and the supernatant was again removed. Cells were then resuspended in 500 μL of a 10 μM stimulator 2.5 μM epoxomicin probe in FBS-free DMEM and incubated for 1 hour at 37° C. Cells were again centrifuged at 1000 g for 5 minutes. Supernatant was then removed, and cells were washed once with cold PBS. Cells were then resuspended in 50 μL of cold PBS and placed on ice. Cellular fluorescence was measured by collecting 50,000 events using the FITC channel of a BD Accuri C6 Flow Cytometer and analyzed using FlowJo.

human red blood cells = assay: Hemolysis assay; format: cell-based; conditions: percent hemolysis, 1 hour at 37° C., table title 15 uM, method 20 μM, in %
Procedure: Whole human blood was purchased at BiolVT and used prior to its expiration. 100 μL blood was added to a 1.5 mL Eppendorf tub with 500 μL of sterile 0.9% NaCl. The tube was inverted multiple times to mix the solution. This mixture was centrifuged at 500 g for 7 minutes. The supernatant was extracted utilizing a pipette. The pellet was washed 2 more times. After the final wash, 800 μL of Red Blood Cell (RBC) buffer was added to the pellet to resuspend the red blood cells. 4 μL of the compounds (20 μM in DMSO, final concentration), 76 μL RBC buffer, and 40 μL resuspended red blood cells were added to a 96 U-well plate (VWR) and incubated for 1 hour at 37° C. The plate was spun at 500 g for 5 minutes. […] of the supernatant was transferred to a 96 flat-well plate. The absorbance was read at 540 nm utilizing a SpectraMax iD3 platereader. Percent hemolysis was measured from the average absorbance of the positive and negative controls. A minimum of 3 biological triplicates were performed.

20S CP [4] = test system: T1, 20S CP; assay: Purified protein degradation assay; format: biochemical; conditions: 10 uM CyPPS, 5 nM 20S CP, 200 ng purified protein, 1 hour at 37° C.; for proteasomal degradation of α-synuclein: highly disordered protein; for proteasomal degradation of GAPDH / proteasomal degradation of lysozyme: low disordered protein
Procedure: Proteins were diluted to 50 ng/μL in Tris HCl (50 mM, pH 7.6). The CyPPS were diluted to 30 μM in Tris HCl, with 6% DMSO. The 20S CP (South Bay) was diluted to 15 nM with Tris HCl. Each protein was performed with a latent level, basal level, and CyPPS in triplicate. The latent level was prepared with 4 μL protein and 8 μL of 3% DMSO in Tris HCl. The basal level contained 4 μL protein, 4 μL 20S CP, and 4 μL 6% DMSO in Tris HCl. The CyPPS was performed with 4 μL protein, 4 μL 20S CP, and 4 μL 30 μM CyPPS. The samples were incubated for 1 hour at 37° C. 4 μL of 4×SDS gel loading buffer was added and heated for 5 minutes at 95° C. The samples were run on a 15-well gradient gel for SDS-PAGE, stained with Coomassie, imaged with an imaging system, and quantified with ImageJ. Analysis was done via GraphPad PRISM9.

proteasome [5] = conditions: background statement; cited from earlier work; remark: listed apart in the source

In the case of `CCCCC/C=C\C/C=C\C/C=C\C/C=C\CCCC(=O)Nc1ccc(O)cc1` [AM-404], the “potency as proteasome stimulator (in words)” value (“potency” for short) (proteasome [1]) is listed as “lack of potency”.

With `C#CC[C@H]1NC(=O)[C@H]([C@@H](C)O)NC(=O)[C@@H](C)NC(=O)[C@H](CCCNC(=N)N)NC(=O)[C@@H](Cc2ccccc2)NC(=O)[C@H](Cc2ccccc2)NC1=O` [CyPPS14, TXFFRA [SEQ ID NO: 14]] (cyclo(T[dPra]F[dF]R[dA])) the “20S CP stimulatory activity (in words, SAR compared to CyPPS1)” value (20S CP [2]) was “retained stimulatory activity”, the EC50 (20S CP [2]) was 12.1 µM and the Emax (20S CP [2]) was 513.6. The TAS-1 (20S CP [2]) was 387.9 ± 2.7, the In-Cellulo [3] was 231.4 ± 31.7 and the “cellular stimulation of the proteasome (in words)” value [3] was “significant cellular stimulation of the proteasome”. The Hemolysis (human red blood cells) was 2 ± 1, the “proteasomal degradation of α-synuclein” value (20S CP [4]) was “greatly enhanced” and the “proteasomal degradation of GAPDH” value (20S CP [4]) was “little-to-no effect”. The “proteasomal degradation of lysozyme” value (20S CP [4]) was “little-to-no effect”.

In the case of `CC(C)C[C@H]1NC(=O)[C@H]([C@@H](C)O)NC(=O)[C@@H](CN)NC(=O)[C@H](CCCNC(=N)N)NC(=O)[C@@H](Cc2ccccc2)NC(=O)[C@H](Cc2ccccc2)NC1=O` [CyPPS23, TLFFRX [SEQ ID NO: 23]] (cyclo(T[dL]F[dF]R[dDap])), the “20S CP stimulatory activity (in words, SAR compared to CyPPS1)” value (20S CP [2]) is reported as “maintained stimulatory activity”, the EC50 (20S CP [2]) is reported as 4 µM and 4.1 µM and the Emax (20S CP [2]) is reported as 391 and 390.9. For the same molecule, the TAS-1 (20S CP [2]) was 352.4 ± 39.1, the In-Cellulo [3] was 247.3 ± 15.4 and the “cellular stimulation of the proteasome (in words)” value [3] was “significant cellular stimulation of the proteasome”. For the same molecule, the Hemolysis (human red blood cells) was 20 ± 4, the “proteasomal degradation of α-synuclein” value (20S CP [4]) was “greatly enhanced” and the “proteasomal degradation of GAPDH” value (20S CP [4]) was “little-to-no effect”. For the same molecule, the “proteasomal degradation of lysozyme” value (20S CP [4]) was “little-to-no effect”.

In the case of `CC(C)c1ccc2c(c1)c(SC(C)(C)C)c(CC(C)(C)C(=O)O)n2Cc1ccc(Cl)cc1` [MK-866], the “activity in cell-based assays (in words)” value (proteasome [5]) is given as “inactivity in cell-based assays”.

For `CN(C)CCCN1c2ccccc2Sc2ccc(Cl)cc21` [chloropromazine], the “activity in cell-based assays (in words)” value (proteasome [5]) is listed as “inactivity in cell-based assays”.

For `Clc1ccc(COC(Cn2ccnc2)c2ccc(Cl)cc2Cl)c(Cl)c1` (stereo not shown) [miconazole], the “potency” value (proteasome [1]) is given as “lack of potency”.

In the case of `C[C@H]1[C@H](C)CC[C@]2(C(=O)O)CC[C@]3(C)C(=CC[C@@H]4[C@@]5(C)CC[C@H](O)C(C)(C)[C@@H]5CC[C@]43C)[C@H]12` [ursolic acid], the “potency” value (proteasome [1]) is given as “lack of potency”.
